In patent US11504382B2, “Tricyclic inhibitors of Hepatitis B virus” (Antios Therapeutics, Inc., priority 2018, dated 2022):
pEC50: −log10 of the molar value. Read-outs that look alike come from different tables or passages of the source.

System: HBV
Experiment: HBV inhibition assay in HepAD38 cells (extracellular HBV DNA by direct qPCR)
Assay type: cell-based, Hepatitis B virus
Settings: 96 hours; for inhibition at 0.05 µM / inhibition at 0.1 µM / Anti HBV Activity (conc μM): relative to non-treated reference; for inhibition at 0.05 µM / inhibition at 0.1 µM: read-out: Anti HBV Activity (conc μM); for pEC50: 8-point dose-response curve, read-out: HBV inh EC50

CCOC(=O)N1C[C@H]2NS(=O)(=O)c3cn(C)c(C(=O)Nc4cc(F)c(F)c(F)c4)c3OC[C@@]2(C)C1 (relative stereo) [Example E85, cis-ethyl 7,10a-dimethyl-8-((3,4,5-trifluorophenyl)carbamoyl)-3a,4,10,10a-tetrahydro-1H,7H-dipyrrolo[3,4-b:3′,4′-f][1,4,5]oxathiazocine-2(3H)-carboxylate 5,5-dioxide]
inhibition at 0.05 µM (Hepatitis B virus, 0.05 μM): > 50%

Cc1cc(NC(=O)c2c3c(cn2C)S(=O)(=O)N[C@@H]2CCN(C(=O)C4(C)COC4)C[C@H]2CO3)ccc1F (relative stereo) [Example E131, Trans-N-(4-fluoro-3-methylphenyl)-2-methyl-8-(3-methyloxetane-3-carbonyl)-5,5a,6,7,8,9,9a,10-octahydro-2H-pyrido[4,3-f]pyrrolo[3,4-b][1,4,5]oxathiazocine-1-carboxamide 4,4-dioxide]
pEC50 (Hepatitis B virus): > 6.00

Cc1nnc(C(=O)N2CC[C@H]3COc4c(cn(C)c4C(=O)Nc4ccc(F)c(C)c4)S(=O)(=O)N[C@@H]3C2)o1 (relative stereo) [Example E140, Trans-N-(4-fluoro-3-methylphenyl)-2-methyl-7-(5-methyl-1,3,4-oxadiazole-2-carbonyl)-5,5a,6,7,8,9,9a,10-octahydro-2H-pyrido[3,4-f]pyrrolo[3,4-b][1,4,5]oxathiazocine-1-carboxamide 4,4-dioxide]
pEC50 (Hepatitis B virus): > 6.00

Cc1nnc(C(=O)N2C[C@H]3COc4c(cn(C)c4C(=O)Nc4ccc(F)c(C)c4)S(=O)(=O)N[C@@H]3C2)o1 (relative stereo) [Example E146, Trans-N-(4-fluoro-3-methylphenyl)-7-methyl-2-(5-methyl-1,3,4-oxadiazole-2-carbonyl)-2,3,3a,4,10,10a-hexahydro-1H,7H-dipyrrolo[3,4-b:3′,4′-f][1,4,5]oxathiazocine-8-carboxamide 5,5-dioxide]
pEC50 (Hepatitis B virus): > 6.00

Cn1cc2c(c1C(=O)Nc1ccc(F)c(F)c1)OC[C@H]1NCC[C@H]1NS2(=O)=O (single isomer, unassigned) [Example E25]
inhibition at 0.1 µM (Hepatitis B virus, 0.1 μM): < 50%

CNC(=O)N1CC[C@H]2NS(=O)(=O)c3cn(C)c(C(=O)Nc4ccc(F)c(F)c4)c3OC[C@H]21 (single isomer, unassigned) [Example E26]
inhibition at 0.1 µM (Hepatitis B virus, 0.1 μM): < 50%

Cn1cc2c(c1C(=O)Nc1ccc(F)c(F)c1)OCC1CCCC1NS2(=O)=O (single isomer, unassigned) [Example E34, N-(3,4-difluorophenyl)-2-methyl-5a,6,7,8,8a,9-hexahydro-2H,5H-cyclopenta[f]pyrrolo[3,4-b][1,4,5]oxathiazocine-1-carboxamide 4,4-dioxide (Chiral 5aS,8aR or 5aR,8aS - Stereochemistry unknown)]
Anti HBV Activity (conc μM) (0.1 μM): B (0.1) (HBV inhibition less than 50% at the concentration indicated in the table)

Cn1cc2c(c1C(=O)Nc1ccc(F)c(F)c1)OCC1CCCC1NS2(=O)=O (single isomer, unassigned) [Example E35, N-(3,4-difluorophenyl)-2-methyl-5a,6,7,8,8a,9-hexahydro-2H,5H-cyclopenta[f]pyrrolo[3,4-b][1,4,5]oxathiazocine-1-carboxamide 4,4-dioxide (Chiral 5aS,8aR or 5aR,8aS - Stereochemistry unknown)]
Anti HBV Activity (conc μM) (0.1 μM): A (0.1) (HBV inhibition greater than 50% at the concentration indicated in the table) | pEC50: > 6.00

CCOC(=O)N1CC2COc3c(cn(C)c3C(=O)Nc3ccc(F)c(F)c3)S(=O)(=O)NC2C1 (single isomer, unassigned) [Example E37, Ethyl 8-((3,4-difluorophenyl)carbamoyl)-7-methyl-3a,4,10,10a-tetrahydro-1H,7H-dipyrrolo[3,4-b:3′,4′-f][1,4,5]oxathiazocine-2(3H)-carboxylate 5,5-dioxide (Chiral 3aS,10aS or 3aR,10aR - Stereochemistry unknown)]
Anti HBV Activity (conc μM) (0.05 μM): A (0.05) (HBV inhibition greater than 50% at the concentration indicated in the table)

CCOC(=O)N1CC2COc3c(cn(C)c3C(=O)Nc3ccc(F)c(F)c3)S(=O)(=O)NC2C1 (single isomer, unassigned) [Example E38, Ethyl 8-((3,4-difluorophenyl)carbamoyl)-7-methyl-3a,4,10,10a-tetrahydro-1H,7H-dipyrrolo[3,4-b:3′,4′-f][1,4,5]oxathiazocine-2(3H)-carboxylate 5,5-dioxide (Chiral 3aS,10aS or 3aR,10aR - Stereochemistry unknown)]
Anti HBV Activity (conc μM) (0.1 μM): B (0.1) (HBV inhibition less than 50% at the concentration indicated in the table)

CCOC(=O)N1C[C@H]2COc3c(cn(C)c3C(=O)Nc3ccc(F)c(C)c3)S(=O)(=O)N[C@H]2C1 (single isomer, unassigned) [Example E39]
inhibition at 0.05 µM (Hepatitis B virus, 0.05 μM): > 50% | pEC50 (Hepatitis B virus): > 6.00

CCOC(=O)N1CC2COc3c(cn(C)c3C(=O)Nc3ccc(F)c(C(F)F)c3)S(=O)(=O)NC2C1 (single isomer, unassigned) [Example E43, Ethyl 8-((3-(difluoromethyl)-4-fluorophenyl)carbamoyl)-7-methyl-3a,4,10,10a-tetrahydro-1H,7H-dipyrrolo[3,4-b:3′,4′-f][1,4,5]oxathiazocine-2(3H)-carboxylate 5,5-dioxide (Chiral 3aS,10aS or 3aR,10aR - Stereochemistry unknown)]
Anti HBV Activity (conc μM) (0.05 μM): A (0.05) (HBV inhibition greater than 50% at the concentration indicated in the table) | pEC50: > 6.00

CCOC(=O)N1CC2COc3c(cn(C)c3C(=O)Nc3ccc(F)c(C(F)F)c3)S(=O)(=O)NC2C1 (single isomer, unassigned) [Example E44, Ethyl 8-((3-(difluoromethyl)-4-fluorophenyl)carbamoyl)-7-methyl-3a,4,10,10a-tetrahydro-1H,7H-dipyrrolo[3,4-b:3′,4′-f][1,4,5]oxathiazocine-2(3H)-carboxylate 5,5-dioxide (Chiral 3aS,10aS or 3aR,10aR - Stereochemistry unknown)]
Anti HBV Activity (conc μM) (0.1 μM): B (0.1) (HBV inhibition less than 50% at the concentration indicated in the table)

CCOC(=O)N1CC2COc3c(cn(C)c3C(=O)Nc3ccc(F)c(C#N)c3)S(=O)(=O)NC2C1 (single isomer, unassigned) [Example E45, Ethyl 8-((3-cyano-4-fluorophenyl)carbamoyl)-7-methyl-3a,4,10,10a-tetrahydro-1H,7H-dipyrrolo[3,4-b:3′,4′-f][1,4,5]oxathiazocine-2(3H)-carboxylate 5,5-dioxide (Chiral 3aS,10aS or 3aR,10aR - Stereochemistry unknown)]
Anti HBV Activity (conc μM) (0.05 μM): A (0.05) (HBV inhibition greater than 50% at the concentration indicated in the table)

CCOC(=O)N1CC2COc3c(cn(C)c3C(=O)Nc3ccc(F)c(C#N)c3)S(=O)(=O)NC2C1 (single isomer, unassigned) [Example E46, Ethyl 8-((3-cyano-4-fluorophenyl)carbamoyl)-7-methyl-3a,4,10,10a-tetrahydro-1H,7H-dipyrrolo[3,4-b:3′,4′-f][1,4,5]oxathiazocine-2(3H)-carboxylate 5,5-dioxide (Chiral 3aS,10aS or 3aR,10aR - Stereochemistry unknown)]
Anti HBV Activity (conc μM) (0.1 μM): B (0.1) (HBV inhibition less than 50% at the concentration indicated in the table)
